As usually defined, the IC50 is the concentration needed to halve the response being measured. Broadly, the half-life is how long it takes for the measured level to halve. Low values mean rapid decline, high ones slow decline. One may read the bioavailability as dose-corrected exposure relative to a reference, in per cent.

In brackets after ≈: the same amount, converted by molar mass.

The results in this text go back to ChEMBL document CHEMBL3425423, “Hydroxy tricyclic 1,5-naphthyridinone oxabicyclooctane-linked novel bacterial topoisomerase inhibitors as broad-spectrum antibacterial agents-SAR of RHS moiety (Part-3)” (Bioorg Med Chem Lett, 2015).

One series deals with Enterococcus faecium. Briefly: Antibacterial activity against VanA-type vancomycin-resistant Enterococcus faecium A2373. It is filed as functional.
The next series relates to Moraxella catarrhalis. Briefly: Antibacterial activity against Moraxella catarrhalis ATCC 25238. It is filed as functional.
In the next series the test system is Escherichia coli. In words: Antibacterial activity against Escherichia coli ATCC 25922. The class given is functional.
The next series deals with Streptococcus pneumoniae. Briefly: Antibacterial activity against Streptococcus pneumoniae IID554. The class given is functional.
A further series concerns Haemophilus influenzae. Briefly: Antibacterial activity against Haemophilus influenzae ATCC 49247. It is filed as functional.
The target of series [1] is T1, Voltage-gated inwardly rectifying potassium channel KCNH2 (Homo sapiens, UniProt Q12809). Briefly: Inhibition of human ERG expressed in CHO cells measured over 5 mins by patch clamp assay. (In general: Patch clamp records ionic current or voltage across a cell membrane.)
The test system of a further series is Pseudomonas aeruginosa. In words: Antibacterial activity against Pseudomonas aeruginosa PAO1. The class given is functional.
Another series has as its system Enterococcus faecalis. Briefly: Antibacterial activity against Enterococcus faecalis ATCC 29212. The class given is functional.
Another series deals with Acinetobacter baumannii. In words: Antibacterial activity against Acinetobacter baumannii IID876. The class given is functional.
Series [2] addresses T1, Voltage-gated inwardly rectifying potassium channel KCNH2. In words: Displacement of MK499 from human ERG.
Series [3] concerns Staphylococcus aureus. In words: Antibacterial activity against Staphylococcus aureus Smith. It is filed as functional.
Series [4] has as its system Staphylococcus aureus. Briefly: Ratio of MIC for quinolone-resistant Staphylococcus aureus MS5935 to MIC for quinolone-sensitive Staphylococcus aureus. The class given is functional.
A short description of series [5]: Volume of distribution at steady state in C57BL/6 mouse at 1 mg/kg, iv and 2 mg/kg, po. It is filed as ADME, organism-based. As to conditions: in vivo, read-out: Vdss.
Series [6] deals with Staphylococcus aureus. In words: Antibacterial activity against Staphylococcus aureus Smith infected in iv dosed CD1 mouse administered at 0.5 hrs post infection. The class given is functional.
The subject of series [7] is Staphylococcus aureus. In words: Antibacterial activity against Staphylococcus aureus Smith infected in po dosed CD1 mouse administered at 0.5 hrs post infection. The class given is functional.
Series [8] is described as follows: Half life in C57BL/6 mouse at 1 mg/kg, iv and 2 mg/kg, po. It is filed as ADME, organism-based. As to conditions: in vivo.
Series [9] is described as follows: Oral bioavailability in C57BL/6 mouse at 2 mg/kg. The class given is ADME, organism-based. As to conditions: in vivo.
The next series has as its system Mus musculus. Briefly: Dose normalized AUC in C57BL/6 mouse at 1 mg/kg, iv and 2 mg/kg, po. As to conditions: in vivo. The class given is ADME, organism-based.
Series [10] in a line: Plasma clearance in C57BL/6 mouse at 1 mg/kg, iv and 2 mg/kg, po. It is filed as ADME, organism-based.
Series [11] has as its system Staphylococcus aureus. Briefly: Antibacterial activity against quinolone-sensitive Staphylococcus aureus MS5935.
For series [12], the system named is Staphylococcus aureus. In words: Antibacterial activity against quinolone-resistant Staphylococcus aureus MS5935. It is filed as functional.
Setting [13] is: Streptococcus pneumoniae, IID554, read-out: MIC.
The mark [14] stands for this setting: Staphylococcus aureus, Smith, read-out: MIC.
Where [15] appears, read: Enterococcus faecium, A2373, read-out: MIC.
Setting [16] is: Moraxella catarrhalis, ATCC 25238, read-out: MIC.
The mark [17] stands for this setting: Escherichia coli, ATCC 25922, read-out: MIC.
[18] abbreviates: Haemophilus influenzae, ATCC 49247, read-out: MIC.
Where [19] appears, read: Pseudomonas aeruginosa, PAO1, read-out: MIC.
The mark [20] stands for this setting: Enterococcus faecalis, ATCC 29212, read-out: MIC.
[21] abbreviates: Acinetobacter baumannii, IID876, read-out: MIC.

T1 sequence (Q12809 whole entry): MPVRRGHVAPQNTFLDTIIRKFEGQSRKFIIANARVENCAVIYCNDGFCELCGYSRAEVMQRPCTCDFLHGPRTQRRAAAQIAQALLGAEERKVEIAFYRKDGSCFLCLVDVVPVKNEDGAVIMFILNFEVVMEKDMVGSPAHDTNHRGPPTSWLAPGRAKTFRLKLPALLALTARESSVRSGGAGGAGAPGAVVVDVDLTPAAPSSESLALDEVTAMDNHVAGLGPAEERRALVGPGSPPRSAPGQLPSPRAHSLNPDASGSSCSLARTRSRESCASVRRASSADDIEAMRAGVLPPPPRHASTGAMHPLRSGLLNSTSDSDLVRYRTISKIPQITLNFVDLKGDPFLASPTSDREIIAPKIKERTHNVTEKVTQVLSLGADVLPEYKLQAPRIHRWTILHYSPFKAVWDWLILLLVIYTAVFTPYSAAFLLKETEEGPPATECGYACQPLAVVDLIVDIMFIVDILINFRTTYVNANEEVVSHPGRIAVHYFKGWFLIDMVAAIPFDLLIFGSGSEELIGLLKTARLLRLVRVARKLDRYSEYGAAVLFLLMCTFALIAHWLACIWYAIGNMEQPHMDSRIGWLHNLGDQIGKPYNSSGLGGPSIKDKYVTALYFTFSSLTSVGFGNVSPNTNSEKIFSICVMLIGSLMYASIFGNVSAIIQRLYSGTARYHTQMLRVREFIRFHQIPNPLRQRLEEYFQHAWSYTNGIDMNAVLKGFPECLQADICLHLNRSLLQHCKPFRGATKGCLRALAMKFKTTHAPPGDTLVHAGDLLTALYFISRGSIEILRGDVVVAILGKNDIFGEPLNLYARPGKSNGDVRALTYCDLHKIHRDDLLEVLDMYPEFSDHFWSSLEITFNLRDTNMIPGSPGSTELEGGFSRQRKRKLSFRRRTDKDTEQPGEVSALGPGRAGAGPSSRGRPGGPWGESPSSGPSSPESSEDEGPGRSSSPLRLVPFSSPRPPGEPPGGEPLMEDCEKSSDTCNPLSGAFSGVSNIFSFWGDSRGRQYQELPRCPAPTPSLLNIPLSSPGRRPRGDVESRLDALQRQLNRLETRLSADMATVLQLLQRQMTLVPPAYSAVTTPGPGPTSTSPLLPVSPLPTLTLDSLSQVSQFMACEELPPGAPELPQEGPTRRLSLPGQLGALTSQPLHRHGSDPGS

With `CC1COc2cc(CNC34CCC(C[C@]5(O)Cn6c(=O)ccc7ncc(F)c5c76)(CC3)OC4)ncc2O1` (stereo in doubt; 20), the MIC in the series with Enterococcus faecium was 32 µg/mL (≈ 62.9 µM); in the series on Moraxella catarrhalis, 2 µg/mL (≈ 3.93 µM); in the series on Escherichia coli, 32 µg/mL (≈ 62.9 µM); in the series on Streptococcus pneumoniae (setting [13]), 2 µg/mL (≈ 3.93 µM); against Haemophilus influenzae it was 16 µg/mL (≈ 31.5 µM); in the series on Pseudomonas aeruginosa, 32 µg/mL (≈ 62.9 µM). The MIC in the series on Enterococcus faecalis is 8 µg/mL (≈ 15.7 µM); in the series with Acinetobacter baumannii, 16 µg/mL (≈ 31.5 µM); in the series with Staphylococcus aureus [3] (setting [14]), 1 µg/mL (≈ 1.97 µM). In addition, the IC50 in [1] and in series [2] was above 60 µM in each case.
Consider `Nc1cc2c(nc1CNC13CCC(C[C@]4(O)Cn5c(=O)ccc6ncc(F)c4c65)(CC1)OC3)NC(=O)CO2`, for which the Ratio with Staphylococcus aureus [4] is listed as below 4. Further, the MIC with Enterococcus faecium (setting [15]) came to 32 µg/mL (≈ 61.2 µM); in the series with Moraxella catarrhalis (setting [16]) it was 4 µg/mL (≈ 7.65 µM); with Escherichia coli (setting [17]), 32 µg/mL (≈ 61.2 µM); with Streptococcus pneumoniae (setting [13]), 32 µg/mL (≈ 61.2 µM); in the series on Haemophilus influenzae (setting [18]) it was 32 µg/mL (≈ 61.2 µM); in the series on Pseudomonas aeruginosa (setting [19]) it was 32 µg/mL (≈ 61.2 µM). The figures for the MIC with Enterococcus faecalis (setting [20]), in the series on Acinetobacter baumannii (setting [21]) and in the series with Staphylococcus aureus [3] (setting [14]) were 32 µg/mL (≈ 61.2 µM), 32 µg/mL (≈ 61.2 µM) and 8 µg/mL (≈ 15.3 µM), respectively.
Regarding `O=C1COc2cc(F)c(CNC34CCC(C[C@]5(O)Cn6c(=O)ccc7ncc(F)c5c76)(CC3)OC4)nc2N1`, the Ratio in the series with Staphylococcus aureus [4] is below 4. In addition, the Vd in series [5] amounted to 1.3 L/kg. Besides, the ED90 in the series with Staphylococcus aureus [6] amounted to 12 mg/kg; with Staphylococcus aureus [7] it was 15 mg/kg. The MIC with Enterococcus faecium (setting [15]) came to 16 µg/mL (≈ 30.4 µM); in the series with Escherichia coli (setting [17]), 8 µg/mL (≈ 15.2 µM); with Streptococcus pneumoniae (setting [13]), 2 µg/mL (≈ 3.81 µM); with Pseudomonas aeruginosa (setting [19]) it was 16 µg/mL (≈ 30.4 µM); with Enterococcus faecalis (setting [20]), 4 µg/mL (≈ 7.61 µM); with Acinetobacter baumannii (setting [21]) it was 8 µg/mL (≈ 15.2 µM). In addition, the MIC in the series with Staphylococcus aureus [3] (setting [14]) was 0.5 µg/mL (≈ 0.951 µM). In series [8], this molecule had a half-life of 1.7 h. Moreover, the figures for the half-maximal inhibitory concentration (IC50) in series [1] and in series [2] were 333 µM and above 60 µM, respectively. Further, in series [9], the bioavailability was 39%. This molecule also gave an AUC/dose with Mus musculus of 2.1 µM·h/mg/kg. In series [10], this molecule yielded a clearance of 15 mL/min/kg.
With `O=c1ccc2ncc(F)c3c2n1C[C@@]3(O)CC12CCC(NCc3ccc4c(n3)NCCN4)(CC1)CO2`, the Ratio with Staphylococcus aureus [4] was below 4. Also, the MIC turned out to be 32 µg/mL (≈ 65 µM) in the series on Enterococcus faecium (setting [15]); 32 µg/mL (≈ 65 µM) in the series with Moraxella catarrhalis (setting [16]); 32 µg/mL (≈ 65 µM) in the series on Escherichia coli (setting [17]); 16 µg/mL (≈ 32.5 µM) with Streptococcus pneumoniae (setting [13]); 32 µg/mL (≈ 65 µM) with Pseudomonas aeruginosa (setting [19]); 32 µg/mL (≈ 65 µM) in the series with Enterococcus faecalis (setting [20]). For the same molecule, the results for the MIC in the series with Acinetobacter baumannii (setting [21]) and in the series on Staphylococcus aureus [3] (setting [14]) were 32 µg/mL (≈ 65 µM) and 8 µg/mL (≈ 16.2 µM), respectively. The IC50 in series [1] and in [2] was above 60 µM throughout.
In the case of `CCc1cc2c(nc1CNC13CCC(C[C@]4(O)Cn5c(=O)ccc6ncc(F)c4c65)(CC1)OC3)NC(=O)CO2`, the Ratio with Staphylococcus aureus [4] is on record as below 4. Also, the MIC in the series on Enterococcus faecium (setting [15]) turned out to be 32 µg/mL (≈ 59.7 µM); in the series with Moraxella catarrhalis (setting [16]) it was 1 µg/mL (≈ 1.87 µM); in the series with Escherichia coli (setting [17]), 16 µg/mL (≈ 29.9 µM); in the series on Streptococcus pneumoniae (setting [13]), 32 µg/mL (≈ 59.7 µM); in the series on Haemophilus influenzae (setting [18]) it was 16 µg/mL (≈ 29.9 µM); in the series on Pseudomonas aeruginosa (setting [19]) it was 32 µg/mL (≈ 59.7 µM). In addition, the MIC turned out to be 32 µg/mL (≈ 59.7 µM) in the series on Enterococcus faecalis (setting [20]), 1 µg/mL (≈ 1.87 µM) in the series with Acinetobacter baumannii (setting [21]) and 8 µg/mL (≈ 14.9 µM) in the series with Staphylococcus aureus [3] (setting [14]). For the same molecule, the half-maximal inhibitory concentration (IC50) in [1] and in [2] was above 60 µM throughout.
With `O=c1ccc2ncc(F)c3c2n1C[C@@]3(O)CC12CCC(NCc3ccc4c(n3)OCCN4)(CC1)CO2`, the Ratio in the series with Staphylococcus aureus [4] is below 4. For the same molecule, the MIC came to 32 µg/mL (≈ 64.8 µM) with Enterococcus faecium (setting [15]); 32 µg/mL (≈ 64.8 µM) in the series with Moraxella catarrhalis (setting [16]); 32 µg/mL (≈ 64.8 µM) in the series on Escherichia coli (setting [17]); 8 µg/mL (≈ 16.2 µM) with Streptococcus pneumoniae (setting [13]); 32 µg/mL (≈ 64.8 µM) in the series with Haemophilus influenzae (setting [18]); 32 µg/mL (≈ 64.8 µM) with Pseudomonas aeruginosa (setting [19]). Also, the MIC in the series with Enterococcus faecalis (setting [20]) came out at 32 µg/mL (≈ 64.8 µM); with Acinetobacter baumannii (setting [21]), 32 µg/mL (≈ 64.8 µM); with Staphylococcus aureus [3] (setting [14]), 8 µg/mL (≈ 16.2 µM).
For `CC1COc2cc(CNC34CCC(C[C@]5(O)Cn6c(=O)ccc7ncc(F)c5c76)(CC3)OC4)ncc2O1` (stereo in doubt; 19), the Ratio with Staphylococcus aureus [4] was below 4. Besides, the MIC was determined as 32 µg/mL (≈ 62.9 µM) with Enterococcus faecium (setting [15]); 4 µg/mL (≈ 7.87 µM) in the series with Moraxella catarrhalis (setting [16]); 32 µg/mL (≈ 62.9 µM) with Escherichia coli (setting [17]); 4 µg/mL (≈ 7.87 µM) against Streptococcus pneumoniae; 32 µg/mL (≈ 62.9 µM) in the series on Haemophilus influenzae (setting [18]); 32 µg/mL (≈ 62.9 µM) in the series with Pseudomonas aeruginosa (setting [19]). In addition, the MIC is 16 µg/mL (≈ 31.5 µM) in the series with Enterococcus faecalis (setting [20]), 16 µg/mL (≈ 31.5 µM) in the series on Acinetobacter baumannii (setting [21]) and 2 µg/mL (≈ 3.93 µM) against Staphylococcus aureus [3].
On to `C[C@H]1COc2c(N3CCN(C)CC3)c(F)cc3c(=O)c(C(=O)O)cn1c23.C[C@H]1COc2c(N3CCN(C)CC3)c(F)cc3c(=O)c(C(=O)O)cn1c23.O` [LEVOFLOXACIN], for which the Ratio in the series with Staphylococcus aureus [4] is given as above 64. In addition, the MIC against Staphylococcus aureus [11] is 0.25 µg/mL; against Staphylococcus aureus [12], above 16 µg/mL.
